The values that follow come from patent US12171728B2, “Mixture of resveratrol supported on metal hydroxide and non-supported pure resveratrol for treating female fertility” (priority 2018, dated 2024).

Data set [1] is described as follows: Pharmacokinetics in humans of resveratrol formulations (plasma profile of total resveratrol). It is filed as in vivo, human. The note with it: voluntary subjects, 180 mg. On the procedure: FIG. 1. Plasma profile of total resveratrol (free resveratrol+its metabolites) following the administration to voluntary subjects of a single dose of resveratrol of 180 mg […]® (circles), from pure resveratrol not supported (squares) and a simulation of the combination of resveratrol from […]® and pure resveratrol not supported in the ratio 1:2 (triangles).
The pharmacokinetics in humans of different types of resveratrol formulations. The administration of 180 mg Resveratrol supported on magnesium hydroxide ([…]®) in voluntary subjects leads to a transient increase in total concentration (free resveratrol+resveratrol metabolites) plasmatic resveratrol with Time at the peak concentration of 30 minutes from administration, followed by a decay of about 40% in the period up to 180 minutes from administration.

In data set [2] the test system is female fertility. Nature of the data set: Case reports of fertility enhancement in infertile/sub-fertile women. It is filed as in vivo, human.
Excerpt: A person is […] and is classified as infertile since has tried to conceive for more than 12 months without the initiation of a state of pregnancy. They are not affected by polycystic ovary syndrome according to the Rotterdam criteria.
The patient, a person classified as being sub-fertile because they have been trying to conceive for more than 12 months unsuccessfully. They are not affected by metabolic disorders such as polycystic ovary syndrome according to the Rotterdam criteria.
A person is […] and is classified as a sub-fertile because they have been trying to conceive for more than 12 months without starting a state of pregnancy. It is not affected by metabolic disorders such as polycystic ovary syndrome according to the Rotterdam criteria.

With `Oc1ccc(C=Cc2cc(O)cc(O)c2)cc1` [pure resveratrol, resveratrol], the “Total plasma concentration of resveratrol compared with REVIFAST” value in data set [1] is “absolute lesser value”. Moreover, the Pregnancy outcome in data set [2] (case n1, infertile, 100 mg per day for 3 months) is listed as “without having a pregnancy”; in data set [2] (case n1, dosage doubled to 200 mg), “has not changed its situation”.
